Data on 1 compound can be found in patent publication US20060013804A1, “Modulation of stem cell differentiation by modulation of caspase-3 activity” (Ottawa Health Research Institute, priority 2002, published 2006).

Common to all, as to format: cell-based, mouse
The subject of one test is ASK1. Description: Immunoprecipitation/kinase assay of ASK1 from neurospheres. To be noted: differentiation media, vs DMSO. The protocol: Immunoprecipitation/Kinase activity assays: Immunoprecipitation/kinase analyses were performed as previously described (Fernando, P., et al., (2002) Proc Natl Acad Sci USA 99, 11025-11030). Cellular lysates from neurospheres were generated as described above. Antibodies against apoptotic signal-regulating kinase 1 (ASK1) (Upstate, USA), p21 activated kinase 1 (PAK1) (Cell Signaling Technologies, USA), and p38 MAPK (Santa Cruz, USA) were used to immunoprecipitate respective proteins. Samples were mixed with Protein G-sepharose beads for 1 h, washed and then mixed with kinase assay buffer containing myelin basic protein (MBP) and γ-32P[ATP]. Samples were reacted at 30° C. for 30 min and separated using SDS-PAGE. In some instances, samples were transferred to PVDF membrane following electrophoresis. To quantify kinase activities, MBP acrylamide bands were excised and solubilized in scintillation fluid prior to 32P-liquid scintillation analyses. In all cases, an activated recombinant mitogen activated protein kinase activated protein-2 (MAPKAP kinase-2) (Upstate, USA) was used as an internal control for liquid scintillation analyses.
Caspase 3, when processed to its active form, is capable of targeting and activating many protein kinases that mediate cellular differentiation. […]

The test system of test [1] is clonally-derived CD1 neurospheres. Description: Neurite extensions / morphology of differentiating neurospheres. Particulars: differentiation media up to 5 d, 2.0 μM inhibitor, vs DMSO. How it is done:
Neurospheres were sub-cultured no more than once per collection. The differentiation of neurospheres was initated by plating spheres on poly-L-ornithine coated plates in NeuroCult Differentiation Medium in the absence of bFGF, as per manufacturer's instructions. […] All cultures received fresh media and inhibitor every 24 h for the duration of the experiment. Neurospheres from caspase 3 null embryos (Fernando, P., et al., (2002) Proc Natl Acad Sci USA 99, 11025-11030) were cultured as described above.
Immunocytochemistry: Neurospheres were collected at selected time points, fixed in 4% paraformaldehyde and prepared for immunostaining as previously described (Fernando, P., et al., (2002) Proc Natl Acad Sci USA 99, 11025-11030)). The primary antibody concentrations for anti-nestin, -GFAP, -MBP and -active caspase 3 (BioVision, USA) were titrated on wildtype CD1 neurospheres prior to their experimental use. These antibodies were visualized by counterstaining with either FITC or Cy3 conjugated secondary antibodies (Chemicon USA). Nuclei were localized with 4′,6-Diamidino-2 phenylindole (DAPI) (Sigma, USA). Cells were visualized using either an Axiovert 100 for transmission microscopy or Axioplan 2 for fluorescent microscopy (Zeiss, Germany) at selected magnifications. Captured images were processed using AxioVision Viewer 3.0 software.
Quantitation of Neurite Extensions: Neurites from differentiating neurospheres were estimated from a total of 6-8 neurospheres per condition over three independent experiments. To quantitated neuritis, the average diameter of an individual neurosphere was estimated from the vertical and horizontal distance. The number of extensions leaving the neurosphere body were then counted and an ratio of neurosphere extensions:average neurosphere diameter was calculated for each. All measurements including neurosphere diameter were evaluated using Scion Image.

Test [2] relates to endogenous kinases (MBP-directed cellular kinase activities). Kind of test: Two-dimensional in-gel kinase assay of C2C12 lysates with MBP as substrate. Particulars: C2C12, 12 h low serum treatment with inhibitor, vs untreated. The protocol:
Samples were subjected to in-gel kinase analyses as previously described (Kolodziejczyk, S. M., et al., (1999) Curr Biol 9, 1203-1206) using MBP or Histone H1 as the target substrate. For two-dimension in-gel kinase analyses, samples were isoelectric focused in the first dimension using pH 4.0-7.0 IPG strips (BioRad). Second dimension analyses was performed using 10% SDS-PAGE containing Histone H1 as the in-gel substrate. Additional in-gel kinase analyses was performed as above.
A two-dimensional in-gel kinase assay was employed using myelin basic protein (MBP) as a target substrate to identify protein kinases that may be targeted by caspase-3 activity. C2C12 cells were treated with caspase-3 inhibitor and total protein lysates were isoelectrically focused in the first dimension and then separated in the second dimension using MBP as the crosslinked substrate. […] Similar results were seen using histone H1 as the in-gel substrate.

A further test concerns PARP cleavage. Kind of test: PARP cleavage by Western blot in differentiating C2C12 myoblasts. To be noted: C2C12, treated vs untreated. The protocol:
Protein isolation, immunoblot analyses and immunocytochemistry. Cells from C2C12 and primary myoblast cultures were washed with ice-cold PBS and lysed on ice for 45 minutes in modified-RIPA buffer containing 20 mM NaF, 5 mM Na3VO4 and 10 μg/ml each of aprotinin, leupeptin, pepstatin and PMSF. Total protein was measured using the BCA protein assay (Pierce). Immunoblot analyses were performed as described (Creasy, C. L., & Chernoff, J. (1995) J. Biol. Chem. 270, 21695-21700) using antibodies for MST1, MKK6, p38γ, and p38α (Upstate), p38 and MEF2C (Cell Signaling Technologies), myogenin F5D and myosin heavy chain MF20 mAb (Developmental Hybridoma Bank), and active caspase-3 (Biovision).
Cells were fixed after 0, 2 and 4 days of differentiation and stained with the myosin heavy chain antibody MF20. […] In contrast, differentiation was more evident in cells that were incubated with caspase-8 inhibitor, z-LETD.fmk (FIG. 2B bottom panel, C).
A general note: A western blot detects proteins with antibodies after separation by electrophoresis.

The next test has as its system PAK2. Description: Immunoprecipitation/kinase assay of PAK2 from neurospheres. Particulars: inhibited vs control treated cultures, neurosphere differentiation.

Entries after “also recorded” stand apart in the source; their conditions may differ.

In the case of `COC(=O)CC[C@H](NC(=O)[C@H](CC(=O)OC)NC(=O)OCc1ccccc1)C(=O)N[C@H](C(=O)N[C@@H](CC(=O)OC)C(=O)CF)C(C)C` [z-DEVD.fmk], the results for the ASK1 kinase activity entry in the test on ASK1 (listed as DEVD) and with ASK1 (listed as z-DEVD) were “decrease” and “reduced”, respectively. The “neurite extensions / morphological changes” value in test [1] was “dramatic reduction in the formation of these projections; also recorded: absent”. In addition, the “activity of endogenous kinases (in-gel, MBP substrate)” value was “diminished level of activity” in test [2] and “significant loss of MBP-directed cellular kinase activities” in test [2] (listed as caspase-3 inhibitor). Further, the PARP cleavage products result with PARP cleavage (listed as Z-DEVD.fmk) is reported as “Comparable levels of PARP cleavage”; in the test with PARP cleavage (listed as z-DEVD), “accumulated to a similar degree”. Moreover, in the test on PAK2, the PAK2 activity entry is “did not observe differences in PAK2 activity”.
